Results taken from ChEMBL document CHEMBL1201862, “PubChem BioAssay data set” (2004).
Active and inactive are the calls of the source.

Assays:
[1] = target: T1, Ubiquitin-conjugating enzyme E2 N (Homo sapiens, UniProt P61088); format: functional;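 further: Dose-response confirmation in a TR-FRET assay detecting UBC13-driven polyubiquitin chain formation, inhibition measured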
T1 sequence (P61088 whole entry): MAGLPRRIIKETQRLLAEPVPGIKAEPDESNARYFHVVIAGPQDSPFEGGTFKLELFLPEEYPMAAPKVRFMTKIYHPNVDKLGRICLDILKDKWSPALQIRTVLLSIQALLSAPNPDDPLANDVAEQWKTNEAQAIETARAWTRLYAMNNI

[2] = target: Glyceraldehyde-3-phosphate dehydrogenase (Homo sapiens, UniProt P04406)
[3] = target: T2, Leucine aminopeptidase (Plasmodium falciparum 3D7, UniProt Q8IL11); experiment: P. falciparum M17LAP inhibitors, primary screen, biochemical, fluorogenic H-Leu-NHMec substrate, 1536-well (AID 1619); format: functional
T2 sequence (Q8IL11 whole entry): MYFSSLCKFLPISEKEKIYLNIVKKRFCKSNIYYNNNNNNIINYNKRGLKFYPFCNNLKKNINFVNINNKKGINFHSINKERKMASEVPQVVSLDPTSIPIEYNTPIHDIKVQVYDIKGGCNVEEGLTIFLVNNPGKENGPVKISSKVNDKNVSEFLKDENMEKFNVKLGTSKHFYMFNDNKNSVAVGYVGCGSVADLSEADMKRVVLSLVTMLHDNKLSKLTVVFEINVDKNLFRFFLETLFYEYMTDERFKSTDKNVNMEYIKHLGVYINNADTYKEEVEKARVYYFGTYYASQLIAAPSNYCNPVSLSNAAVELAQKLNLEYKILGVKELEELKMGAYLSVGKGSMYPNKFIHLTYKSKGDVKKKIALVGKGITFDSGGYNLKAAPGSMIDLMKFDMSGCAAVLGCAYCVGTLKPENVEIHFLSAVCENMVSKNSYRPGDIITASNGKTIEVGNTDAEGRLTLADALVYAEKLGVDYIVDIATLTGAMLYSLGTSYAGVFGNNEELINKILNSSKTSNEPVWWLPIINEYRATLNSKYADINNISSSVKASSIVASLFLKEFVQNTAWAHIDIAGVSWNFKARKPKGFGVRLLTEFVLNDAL

[4] = target: T3, Zinc finger protein mex-5 (Caenorhabditis elegans, UniProt Q9XUB2); experiment: MEX-5/TCR-2 RNA interaction inhibitors, dose response, biochemical, C. elegans, fluorescence polarization (AID 1960)
T3 sequence (Q9XUB2 whole entry): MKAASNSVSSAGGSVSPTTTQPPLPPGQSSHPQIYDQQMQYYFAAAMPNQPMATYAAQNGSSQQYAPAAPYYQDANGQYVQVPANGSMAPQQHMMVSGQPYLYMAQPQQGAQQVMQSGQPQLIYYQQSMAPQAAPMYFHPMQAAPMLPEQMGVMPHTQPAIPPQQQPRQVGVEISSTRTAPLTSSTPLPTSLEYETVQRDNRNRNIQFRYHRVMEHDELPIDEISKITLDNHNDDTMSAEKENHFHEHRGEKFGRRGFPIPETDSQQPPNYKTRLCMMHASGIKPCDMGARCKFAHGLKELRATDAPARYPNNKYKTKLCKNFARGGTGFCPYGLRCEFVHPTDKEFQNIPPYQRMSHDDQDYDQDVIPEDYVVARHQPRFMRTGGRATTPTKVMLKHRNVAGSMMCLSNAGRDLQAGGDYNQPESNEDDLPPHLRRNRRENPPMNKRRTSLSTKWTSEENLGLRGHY

[5] = target: T4, RNA-binding protein pos-1 (Caenorhabditis elegans, UniProt G5EF15); experiment: inhibitors of POS-1/mex-3 RNA binding, dose response, biochemical, fluorescence polarization (AID 1964);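 further: purified POS-1 fused to maltose binding protein made in E. coli; potency of compounds blocking POS-1 binding to fluorescent RNA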
T4 sequence (G5EF15 whole entry): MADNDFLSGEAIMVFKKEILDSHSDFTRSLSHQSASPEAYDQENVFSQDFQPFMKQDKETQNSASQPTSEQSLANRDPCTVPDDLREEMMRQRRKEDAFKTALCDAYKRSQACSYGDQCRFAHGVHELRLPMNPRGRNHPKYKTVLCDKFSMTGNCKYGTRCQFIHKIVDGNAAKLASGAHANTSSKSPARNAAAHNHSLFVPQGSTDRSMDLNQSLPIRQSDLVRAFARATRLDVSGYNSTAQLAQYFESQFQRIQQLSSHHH

[6] = target: Heat shock protein HSP 90-alpha (Homo sapiens, UniProt P07900); format: functional, organism-based
[7] = target: T5, Replicative DNA helicase DnaB (Mycobacterium tuberculosis, UniProt P9WMR3); experiment: DnaB intein splicing inhibitors, dose response, biochemical, cell-free fluorescence (AID 449749); format: functional
T5 sequence (P9WMR3 whole entry): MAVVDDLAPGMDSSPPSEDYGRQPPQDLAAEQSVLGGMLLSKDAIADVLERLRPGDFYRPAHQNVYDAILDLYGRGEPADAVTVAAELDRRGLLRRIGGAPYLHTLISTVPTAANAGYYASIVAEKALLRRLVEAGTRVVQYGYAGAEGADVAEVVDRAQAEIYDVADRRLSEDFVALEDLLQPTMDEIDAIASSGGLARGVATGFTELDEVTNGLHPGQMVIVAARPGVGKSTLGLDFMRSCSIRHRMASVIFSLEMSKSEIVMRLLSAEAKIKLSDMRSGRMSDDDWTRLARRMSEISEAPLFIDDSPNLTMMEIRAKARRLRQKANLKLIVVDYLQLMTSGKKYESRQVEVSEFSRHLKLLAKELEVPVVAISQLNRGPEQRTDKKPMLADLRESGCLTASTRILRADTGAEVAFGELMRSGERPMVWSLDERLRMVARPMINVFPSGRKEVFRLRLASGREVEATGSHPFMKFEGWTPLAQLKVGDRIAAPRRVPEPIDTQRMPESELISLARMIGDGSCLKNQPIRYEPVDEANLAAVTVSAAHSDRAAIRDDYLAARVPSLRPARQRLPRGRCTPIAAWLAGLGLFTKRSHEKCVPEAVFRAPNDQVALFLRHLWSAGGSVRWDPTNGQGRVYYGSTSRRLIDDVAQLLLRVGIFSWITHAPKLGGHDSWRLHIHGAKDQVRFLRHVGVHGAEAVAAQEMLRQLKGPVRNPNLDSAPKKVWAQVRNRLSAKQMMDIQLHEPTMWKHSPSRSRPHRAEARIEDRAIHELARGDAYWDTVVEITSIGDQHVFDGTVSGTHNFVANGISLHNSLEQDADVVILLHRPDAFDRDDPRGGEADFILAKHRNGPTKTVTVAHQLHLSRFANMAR

[8] = C. albicans growth with fluconazole, confirmation, fluorescence, retest (AID 2467); format: functional, cell-based
[9] = HepG2 cell cytotoxicity, dose response, cytotoxicity control for Shn3 inhibitor project, CellTiter-Glo, cherry-picked (AID 624134); format: functional, cell-based
[10] = control 3'UTR Renilla luciferase suppression, dose response, counter-screen for Shn3 inhibitor project, cell-based, Clone20-Shn3RL, cherry-picked (AID 624133); format: functional
[11] = target: T6, Protein RecA (Mycobacterium tuberculosis, UniProt P9WHJ3); experiment: Fluorescence Cell-Free Homogeneous Dose Retest to Identify Inhibitors of RecA-Intein Splicing Activity. [Related pubchem assays (depositor defined):AID2097, AID2223, AID489010, AID492950]; format: functional
T6 sequence (P9WHJ3 whole entry): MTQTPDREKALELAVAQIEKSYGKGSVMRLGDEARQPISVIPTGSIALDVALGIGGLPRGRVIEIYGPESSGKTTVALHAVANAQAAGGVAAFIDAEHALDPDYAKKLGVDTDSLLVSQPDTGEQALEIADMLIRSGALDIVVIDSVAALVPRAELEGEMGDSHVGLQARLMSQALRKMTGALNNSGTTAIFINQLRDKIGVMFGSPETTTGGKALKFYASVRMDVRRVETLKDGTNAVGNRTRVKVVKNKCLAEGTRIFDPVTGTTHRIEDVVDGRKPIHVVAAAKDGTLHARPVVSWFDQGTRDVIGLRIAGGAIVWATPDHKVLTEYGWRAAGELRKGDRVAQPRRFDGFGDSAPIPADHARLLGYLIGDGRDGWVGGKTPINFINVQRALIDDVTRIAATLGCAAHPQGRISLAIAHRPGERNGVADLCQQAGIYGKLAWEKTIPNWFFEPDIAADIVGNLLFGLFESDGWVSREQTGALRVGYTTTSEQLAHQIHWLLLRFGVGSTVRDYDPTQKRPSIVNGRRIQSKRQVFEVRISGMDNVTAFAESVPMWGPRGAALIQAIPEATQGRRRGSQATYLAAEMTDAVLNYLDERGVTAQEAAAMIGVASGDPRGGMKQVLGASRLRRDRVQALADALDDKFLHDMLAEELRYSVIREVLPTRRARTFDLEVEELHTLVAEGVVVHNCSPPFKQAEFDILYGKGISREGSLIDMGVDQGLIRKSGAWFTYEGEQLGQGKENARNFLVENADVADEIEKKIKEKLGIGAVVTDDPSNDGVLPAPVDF

[12] = Shn3 3'UTR reporter inhibitors, dose response, cell-based, Clone20 osteoblasts, firefly luciferase, cherry-picked (AID 624132); format: functional;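 further: firefly luciferase luminescence from reporter carrying the Shn3 3'UTR in osteoblasts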
[13] = NIH-3T3 fibroblast cytotoxicity, dose response, cytotoxicity control, cell-based, fluorescence, Alamar Blue, secondary assay (AID 2327); format: functional;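 further: NIH-3T3 mouse fibroblasts cultured with fluconazole at 8 µg/mL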
[14] = system: Streptococcus sp. 'group A'; experiment: growth inhibition of control SK(-) GAS strain, dose response, counter-screen for streptokinase expression inhibitor project, luminescence, kanamycin, BacTiterGlo, confirmation (AID 1900); format: functional, organism-based; details: read-out: EC50
[15] = system: Streptococcus; experiment: Group A Streptococcus viability loss, dose response, counter-screen for streptokinase expression inhibitor project, luminescence, BacTiterGlo (AID 1915); format: functional, organism-based;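 further: potency for reduction of bacterial viability or growth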
[16] = target: T7, Streptokinase A (Streptococcus pyogenes serotype M1, UniProt P10520); experiment: S. pyogenes streptokinase expression inhibitors, potency, dose response, plasminogen activation absorbance, OD405 (AID 1914); format: functional, Streptococcus pyogenes M1 GAS;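 further: secreted streptokinase activity via plasminogen activation per viability signal from cell pellet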
T7 sequence (P10520 whole entry): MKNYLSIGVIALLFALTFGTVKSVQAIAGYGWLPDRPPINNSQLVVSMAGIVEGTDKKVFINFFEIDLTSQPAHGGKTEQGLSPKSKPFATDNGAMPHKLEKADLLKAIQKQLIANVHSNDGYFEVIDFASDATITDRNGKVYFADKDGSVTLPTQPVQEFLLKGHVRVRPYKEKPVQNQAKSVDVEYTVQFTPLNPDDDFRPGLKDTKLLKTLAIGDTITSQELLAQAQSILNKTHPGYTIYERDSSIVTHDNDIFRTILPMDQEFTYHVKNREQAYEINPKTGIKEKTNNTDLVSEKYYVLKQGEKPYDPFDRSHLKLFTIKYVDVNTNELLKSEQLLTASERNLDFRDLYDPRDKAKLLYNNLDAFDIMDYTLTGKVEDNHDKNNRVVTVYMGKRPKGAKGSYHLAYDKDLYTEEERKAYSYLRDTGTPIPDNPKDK

[17] = target: Eukaryotic translation initiation factor 4E (Mus musculus, UniProt P63073); experiment: eIF4E–eIF4G protein interaction inhibitors, dose response, biochemical, TR-FRET (AID 855); format: functional;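 further: potency for disrupting eIF4E binding to eIF4GI seen as loss of FRET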
[18] = target: Induced myeloid leukemia cell differentiation protein Mcl-1 (Homo sapiens, UniProt Q07820); format: functional
Induced myeloid leukemia cell differentiation protein Mcl-1, sequence (Q07820 whole entry): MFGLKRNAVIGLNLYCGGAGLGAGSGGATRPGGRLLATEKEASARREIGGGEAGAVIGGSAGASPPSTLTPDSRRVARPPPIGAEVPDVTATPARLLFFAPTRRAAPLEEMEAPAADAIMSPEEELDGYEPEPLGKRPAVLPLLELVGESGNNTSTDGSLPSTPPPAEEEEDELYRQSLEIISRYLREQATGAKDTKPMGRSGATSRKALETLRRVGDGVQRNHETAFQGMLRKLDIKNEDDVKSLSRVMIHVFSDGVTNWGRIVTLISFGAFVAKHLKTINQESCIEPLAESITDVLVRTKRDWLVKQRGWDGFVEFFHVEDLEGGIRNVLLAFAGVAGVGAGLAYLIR

Glyceraldehyde-3-phosphate dehydrogenase, sequence (P04406 whole entry): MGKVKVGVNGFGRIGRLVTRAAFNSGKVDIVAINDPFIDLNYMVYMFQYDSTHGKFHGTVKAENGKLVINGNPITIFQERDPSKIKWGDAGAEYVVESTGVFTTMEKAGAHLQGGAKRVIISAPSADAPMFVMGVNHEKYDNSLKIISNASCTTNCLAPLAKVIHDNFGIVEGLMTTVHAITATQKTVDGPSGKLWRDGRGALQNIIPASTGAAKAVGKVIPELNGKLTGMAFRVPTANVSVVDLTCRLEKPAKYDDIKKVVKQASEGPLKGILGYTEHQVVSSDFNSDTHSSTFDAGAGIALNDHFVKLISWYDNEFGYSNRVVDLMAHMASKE
Eukaryotic translation initiation factor 4E, sequence (P63073 whole entry): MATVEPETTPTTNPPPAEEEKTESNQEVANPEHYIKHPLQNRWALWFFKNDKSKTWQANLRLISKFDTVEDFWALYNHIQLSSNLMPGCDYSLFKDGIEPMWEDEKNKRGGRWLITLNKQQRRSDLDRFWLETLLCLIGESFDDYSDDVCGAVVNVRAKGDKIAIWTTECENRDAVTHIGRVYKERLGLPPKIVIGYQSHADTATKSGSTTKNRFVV

O=C1/C(=C/c2cccc([N+](=O)[O-])c2)CSc2ccc(Cl)cc21
IC50 [1]: > 20 µM (inactive)

O=C1C(Cl)=C(N2CCN(C/C=C/c3ccccc3)CC2)C(=O)N1c1ccc(Cl)nc1
IC50 [2]: > 50 µM (inconclusive)

COc1ccc(CC(CC(=O)O)C(=O)Nc2ccc(OC)cc2)cc1 (configuration not stated)
IC50 [3]: 8.96 µM (active)

C=CCOn1c(=O)c(-c2cc3ccccc3o2)[n+]([O-])c2ccccc21
EC50 [4]: 69.7 µM (inconclusive)
EC50 [5]: 28.3 µM (inconclusive)

CN1CCN(C(c2ccc(Br)cc2)c2cc(Cl)c3cccnc3c2O)CC1 (configuration not stated)
AC50 [6]: 0.609 µM (active)
AC50 [7]: 14.3 µM (active)
EC50 [8]: 0.492 µM (active)
AC50 [9]: 34.9 µM (active)
AC50 [10]: 6.28 µM (active)
EC50 [11]: 3.22 µM (active)
AC50 [12]: 3.61 µM (active)
EC50 [13]: 4.78 µM (inconclusive)

O=C(O)CSc1cccc2c(SCC(=O)O)cccc12
IC50 [2]: > 100 µM (not active)

O=C(O)C1CC=CCC1C(=O)NCCc1cccc(Cl)c1 (configuration not stated)
IC50 [3]: 11.8 µM (active)

CN(C)c1ccc(-c2nnc(-c3ccc(S(=O)(=O)C(F)F)cc3)o2)cc1
EC50 [4]: 31.4 µM (inconclusive)
EC50 [5]: 55.7 µM (inconclusive)

CC1CCN(c2nc3ccccc3nc2C(C#N)C(=O)NC2CCCCC2)CC1 (configuration not stated)
EC50 [4]: > 300 µM (not active)
EC50 [14]: 7.52 µM (active)
EC50 [15]: 18.3 µM (active)
EC50 [5]: > 300 µM (not active)
EC50 [16]: 26.2 µM (active)

O=C(CSc1ccccn1)Nc1ccc(O)c(C(=O)O)c1
IC50 [2]: > 100 µM (not active)

Cc1c(CN2CCCCC2)c(O)n(CCCO)c(=O)c1C#N
EC50 [4]: > 300 µM (not active)
EC50 [5]: > 300 µM (not active)

CCOC(=O)c1c(NC(=O)C2C3C=CC(CC3)C2C(=O)O)sc(C)c1CC (configuration not stated)
IC50 [3]: 13.2 µM (active)

Cc1cc(C(=O)CSc2nc[nH]n2)c(C)n1-c1cccc(S(=O)(=O)N2CCOCC2)c1
IC50 [3]: 22.8 µM (active)

O=C(O)CCN1C(=O)/C(=C/c2cn(-c3ccccc3)nc2-c2cccs2)SC1=S
IC50 [17]: 50 µM (inactive)
IC50 [3]: 3.05 µM (active)
IC50 [18]: 3.24 µM (not active)

CCOC(=O)/C=c1\s/c(=C\c2ccc(C#N)cc2)c(=O)n1CC(=O)NCc1ccco1
EC50 [4]: > 300 µM (not active)
EC50 [5]: > 300 µM (not active)

CCCN1C=CC(=C/C=C(\C#N)C(=O)OCC)C=C1
IC50 [3]: 91.5 µM (active)

CC(C)C[C@H]1CN=C(N(C)C)N1CC1CCCCCC1
AC50 [9]: > 70 µM (inactive)
AC50 [10]: 9.97 µM (active)
AC50 [12]: 5.03 µM (active)

COc1ccc(OCC(=O)NNC(=S)NC(=O)c2ccc([N+](=O)[O-])cc2)cc1
IC50 [1]: > 20 µM (inactive)

CC1=NNC(=O)C1CCC(=O)N/N=C(\C)c1ccccc1 (configuration not stated)
IC50 [3]: 36.6 µM (active)

Cc1cc(C)n2nc(SCC(=O)c3cc(C)n(-c4cc(C)on4)c3C)nc2n1
AC50 [9]: > 70 µM (inactive)
AC50 [10]: 3.28 µM (active)
AC50 [12]: 2.46 µM (active)

CC(C)c1c(O)nc(SCC(=O)Nc2ccc3c(c2)CCC3)[nH]c1=O
IC50 [3]: 8.08 µM (active)
